Source: publication PMC9928118, “Funneling modulatory peptide design with generative models: Discovery and characterization of disruptors of calcineurin protein-protein interactions” (PLOS Computational Biology, 2023)
Values belong to the sequence of their own block, whether it stands above or below them.

System: GST-tagged Cn
Assay: PEPperPRINT peptide microarray binding assay with GST-tagged Cn
Method in brief: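 Qualitative binding: peptides printed on a PEPperPRINT microarray were incubated overnight at 4 °C with 1 mg/ml GST-tagged Cn, then detected with Alexa-Fluor 647 anti-GST antibody. Log fluorescence was baseline-corrected, averaged over duplicate spots, Z-normalized and averaged across five repeats.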

[1] = max over the chip locations listed for the peptide (two spots)
[2] = mean over the chip locations listed for the peptide (two spots)
[3] = GST-tagged Cn, max over the spots on the chip (two locations)
[4] = GST-tagged Cn, mean over the spots on the chip (two locations)
[5] = max over the spots listed under Location on chip
[6] = mean over the spots listed under Location on chip
[7] = GST-tagged Cn, max over the spots named in Location on chip
[8] = GST-tagged Cn, mean over the spots named in Location on chip
[9] = GST-tagged Cn, max over the chip locations
[10] = GST-tagged Cn, mean over the chip locations
[11] = GST-tagged Cn, max over the chip spots listed under Location on chip
[12] = GST-tagged Cn, mean over the chip spots listed under Location on chip

Sequence: SSSSLPTFQFSTPATL [SeqRBM_7341]
Chip Fluorescence (max) [3]: 1.265 | Chip Fluorescence (mean) [4]: -1.213

Sequence: STAALPKFDFSNPHIS [SeqRBM_9234]
Chip Fluorescence (max) [5]: 2.8681 | Chip Fluorescence (mean) [6]: 0.4605

Sequence: STSSLPTFSFSPPAPS [SeqRBMlowT_2355]
Chip Fluorescence (max) [7]: 1.468 | Chip Fluorescence (mean) [8]: -0.4662

Sequence: STSSLPTFSFSSLAPS [SeqRBMlowT_2354]
Chip Fluorescence (max) [3]: 1.162 | Chip Fluorescence (mean) [4]: -0.4848

Sequence: STSSLPTFSFSSPAPS [SeqRBMlowT_801]
Chip Fluorescence (max) [9]: -0.2979 | Chip Fluorescence (mean) [10]: -1.46

Sequence: STSSLPTFSFSSPASS [SeqRBMlowT_1605]
Chip Fluorescence (max) [9]: 0.1343 | Chip Fluorescence (mean) [10]: -0.9005

Sequence: STSSLPTFSFSSPLPT [SeqRBMlowT_898]
Chip Fluorescence (max) [9]: -0.2197 | Chip Fluorescence (mean) [10]: -1.424

Sequence: STSSLPTFSFSSPLST [SeqRBMlowT_892]
Chip Fluorescence (max) [7]: 1.3512 | Chip Fluorescence (mean) [8]: -0.8669

Sequence: STSSLPTFSFSSPPPT [SeqRBMlowT_3483]
Chip Fluorescence (max) [9]: -1.1866 | Chip Fluorescence (mean) [10]: -2.157

Sequence: STSSLPTFSFSSPPST [SeqRBMlowT_3479]
Chip Fluorescence (max) [9]: -1.235 | Chip Fluorescence (mean) [10]: -1.867

Sequence: STSSLPTFSFSSPVPS [SeqRBMlowT_2358]
Chip Fluorescence (max) [9]: -0.2537 | Chip Fluorescence (mean) [10]: -3.06

Sequence: STSSLPTFSFSSPVPT [SeqRBMlowT_3904]
Chip Fluorescence (max) [11]: 0.9816 | Chip Fluorescence (mean) [12]: -1.275

Sequence: STSSLPTFSFSSPVSH [SeqRBMlowT_1620]
Chip Fluorescence (max) [5]: 3.347 | Chip Fluorescence (mean) [6]: 0.3099

Sequence: STSSLPTFSFSTPPPT [SeqRBMlowT_1617]
Chip Fluorescence (max) [3]: 1.022 | Chip Fluorescence (mean) [4]: -1.34

Sequence: SVDKHPRVYVATSRED [SeqRBM_4749]
Chip Fluorescence (max) [1]: 4.793 | Chip Fluorescence (mean) [2]: 0.8161

Sequence: SYLPIIQVRMTDTGEY [SeqRBM_6285]
Chip Fluorescence (max) [3]: 1.118 | Chip Fluorescence (mean) [4]: 0.3431

Sequence: TDHMNPQITISSKEND [SeqRBM_3457]
Chip Fluorescence (max) [3]: 1.164 | Chip Fluorescence (mean) [4]: 0.5231

Sequence: TEWNNPQQIVGPTEGD [SeqRBM_3582]
Chip Fluorescence (max) [9]: 0.1516 | Chip Fluorescence (mean) [10]: -1.002

Sequence: TFHINPQLHLIVSDAD [SeqCAPN11_Daphnia_magna]
Chip Fluorescence (max) [9]: -0.5586 | Chip Fluorescence (mean) [10]: -0.9234

Sequence: TFHLNPQYRITLEDPD [SeqCAPN11_Daphnia_magna_3]
Chip Fluorescence (max) [7]: 1.7985 | Chip Fluorescence (mean) [8]: 0.6671

Sequence: TFHREPQNRLYVLSAV [SeqRBM_456]
Chip Fluorescence (max) [9]: 0.238 | Chip Fluorescence (mean) [10]: -1.007

Sequence: TFHTNPQYRVNIEDQD [SeqRBM_8967]
Chip Fluorescence (max) [7]: 1.436 | Chip Fluorescence (mean) [8]: 0.08694

Sequence: TFNTNPQYTIQVVWPD [SeqRBM_7110]
Chip Fluorescence (max) [9]: -0.1833 | Chip Fluorescence (mean) [10]: -1.179

Sequence: TFTDNPQYTIKLVETD [SeqRBM_9774]
Chip Fluorescence (max) [11]: 0.9523 | Chip Fluorescence (mean) [12]: 0.09387

Sequence: TFWANPQFKIRLEEPD [SeqRBMlowT_2213]
Chip Fluorescence (max) [3]: 1.142 | Chip Fluorescence (mean) [4]: -0.04147

Sequence: TFWDNPQYQIKLNDPD [SeqRBM_8698]
Chip Fluorescence (max) [7]: 1.7877 | Chip Fluorescence (mean) [8]: -0.1207

Sequence: TFWHNPQYVINLEDPD [SeqCAPN11_Anopheles_dirus]
Chip Fluorescence (max) [7]: 1.5542 | Chip Fluorescence (mean) [8]: 0.5719

Sequence: TFWINPQFKVRLDEID [SeqCAPN11_Boiga_irregularis]
Chip Fluorescence (max) [7]: 1.765 | Chip Fluorescence (mean) [8]: 0.8018

Sequence: TFWINPQIVITLADED [SeqRBMlowT_2933]
Chip Fluorescence (max) [5]: 2.77 | Chip Fluorescence (mean) [6]: 0.3523

Sequence: TFWMNPQFKINLEEED [SeqCAPN11_Salmo_salar]
Chip Fluorescence (max) [5]: 3.077 | Chip Fluorescence (mean) [6]: 0.4499

Sequence: TFWMNPQFRITLDDPD [SeqRBMlowT_69]
Chip Fluorescence (max) [5]: 3.266 | Chip Fluorescence (mean) [6]: 0.639

Sequence: TFWMNPQYMIKLEEED [SeqCAPN11_Monodelphis_domestica]
Chip Fluorescence (max) [1]: 4.262 | Chip Fluorescence (mean) [2]: 0.2921

Sequence: TFWSNPQFDIALDDDD [SeqRBM_1928]
Chip Fluorescence (max) [1]: 3.897 | Chip Fluorescence (mean) [2]: 1.75

Sequence: TFWSNPQFKIKLEEPD [SeqRBMlowT_2229]
Chip Fluorescence (max) [3]: 1.024 | Chip Fluorescence (mean) [4]: -0.06201

Sequence: TFWSNPQFKITLEDPD [SeqRBMlowT_3183]
Chip Fluorescence (max) [9]: 0.1109 | Chip Fluorescence (mean) [10]: -0.8373

Sequence: TFWSNPQFKVSLEEPD [SeqRBMlowT_2967]
Chip Fluorescence (max) [7]: 1.583 | Chip Fluorescence (mean) [8]: -0.5694

Sequence: TFWSNPQFRITLEDPD [SeqRBMlowT_45]
Chip Fluorescence (max) [1]: 4.041 | Chip Fluorescence (mean) [2]: 0.007175

The next lines start with the values.

Chip Fluorescence (max) [1]: 4.629 | Chip Fluorescence (mean) [2]: 0.8375
Sequence: SSRSSSRPARSPERKP [SeqRGA2_Fusarium_oxysporum]

Chip Fluorescence (max) [5]: 2.669 | Chip Fluorescence (mean) [6]: -0.6649
Sequence: STASLPTFSFSPLAPS [SeqRBMlowT_9999]

Chip Fluorescence (max) [7]: 1.433 | Chip Fluorescence (mean) [8]: -0.5855
Sequence: STEIIATLFVQVANEY [Seqshuffled_9888]

Chip Fluorescence (max) [5]: 2.848 | Chip Fluorescence (mean) [6]: -0.8116
Sequence: STKSSGRPSRSPERAS [SeqRGA2_Colletotrichum_sublineola]

Chip Fluorescence (max) [7]: 1.58 | Chip Fluorescence (mean) [8]: 0.09302
Sequence: STSGTFPQTESSHKKQ [SeqRBMlowT_5831]

Chip Fluorescence (max) [5]: 2.68 | Chip Fluorescence (mean) [6]: 0.3277
Sequence: STSSLPTFSFSPPQPT [SeqRBMlowT_3908]

Chip Fluorescence (max) [3]: 1.216 | Chip Fluorescence (mean) [4]: -1.018
Sequence: STSSLPTFSFSSPKPQ [SeqRBMlowT_8920]

Chip Fluorescence (max) [7]: 1.5 | Chip Fluorescence (mean) [8]: -1.084
Sequence: STSSLPTFSFSSPLPS [SeqRBMlowT_3929]

Chip Fluorescence (max) [3]: 1.1241 | Chip Fluorescence (mean) [4]: -0.7201
Sequence: STSSLPTFSFSSPQPS [SeqRBMlowT_3925]

Chip Fluorescence (max) [9]: -0.1298 | Chip Fluorescence (mean) [10]: -1.588
Sequence: STSSLPTFSFSSPQST [SeqRBMlowT_3930]

Chip Fluorescence (max) [5]: 3.124 | Chip Fluorescence (mean) [6]: 1.438
Sequence: SVWENATVRFNFFPDN [Seqshuffled_9917]

Chip Fluorescence (max) [1]: 3.4958 | Chip Fluorescence (mean) [2]: 1.049
Sequence: TFHTNPQYRIKLEEPD [SeqRBMlowT_4495]

Chip Fluorescence (max) [9]: 0.1586 | Chip Fluorescence (mean) [10]: -0.3624
Sequence: TFWANPQFRIKLEEPD [SeqRBMlowT_4612]

Chip Fluorescence (max) [1]: 4.098 | Chip Fluorescence (mean) [2]: 0.694
Sequence: TFWANPQYKIHLEEED [SeqRBMlowT_4653]

Chip Fluorescence (max) [1]: 3.47 | Chip Fluorescence (mean) [2]: 1.839
Sequence: TFWMNPQFKISLEDPD [SeqRBMlowT_4243]

Chip Fluorescence (max) [7]: 1.645 | Chip Fluorescence (mean) [8]: 1.054
Sequence: TFWMNPQFKVKLEEVD [SeqRBMlowT_6848]

Chip Fluorescence (max) [7]: 1.8162 | Chip Fluorescence (mean) [8]: 0.005772
Sequence: TFWMNPQYKIKLEEPD [SeqRBMlowT_4687]

Chip Fluorescence (max) [7]: 1.373 | Chip Fluorescence (mean) [8]: 0.3282
Sequence: TFWSNPQFKIKLEDPD [SeqRBMlowT_7428]

Chip Fluorescence (max) [3]: 1.116 | Chip Fluorescence (mean) [4]: -0.2464
Sequence: TFWSNPQFKIKLEEED [SeqRBMlowT_8507]

Chip Fluorescence (max) [7]: 1.348 | Chip Fluorescence (mean) [8]: -0.7061
Sequence: TFWSNPQFKITLDEPD [SeqRBMlowT_5518]

Chip Fluorescence (max) [11]: 0.5324 | Chip Fluorescence (mean) [12]: -0.206
Sequence: TFWSNPQFRITLEEPD [SeqRBMlowT_9100]
